One molecule from patent publication EP3661951B1, “GENES AND METHODS FOR BIOTECHNOLOGICAL PRODUCTION AND COMPARTMENTALIZATION OF HIGH ADDED VALUE APOCAROTENOIDS” (Agenzia Nazionale Per Le Nuove Tecnologie, L'Energia E Lo …, priority 2017, dated 2019) can be followed below.

For assay [1], the system named is Crocus sativus CsABCC2 transporter (SEQ ID NO 14). Kind of assay: In vitro transport assay ("transportomics") with yeast microsomes, inhibition by Probenecid. The class given is biochemical. The settings on record: Probenecid 1 mM, microsomes pre-incubated 10 minutes at room temperature; saffron hydroalcoholic extract as substrate; net ATP-dependent transport after 15 minutes; S. cerevisiae ybt1 microsomes. Here is the method:
(§1) A new in vitro assay was prepared, differing from the classical transportation assay wherein the vesicles are left to incubate for pre-established periods of time with the putative substrate, washed, lysed and the content analysed by liquid chromatography coupled to a UV/visible detector. With respect to the works existing in literature relating the in-vitro functional characterization of transporters, the present invention introduces the concept of "transportomics": the assay is based upon the transportation analysis, performed by LC-HRMS, of all molecules existing in the saffron extract. This approach, providing the use of a raw extract instead of commercial purified standards, allows to characterize the transportation even of molecules which are not commercially available; moreover, as it is based upon data obtained with high resolution mass spectrometry, rather than with photodiode series detector (PDA), the system is extremely sensitive and it allows to appreciate the transportation of low abundant metabolites.
(§2) With this method, then, it was observed that the two ABCC transporters are capable of transporting different crocins apart from some flavonoids (figure 10b, black bars). […]

Assay [2] concerns Crocus sativus CsABCC1 transporter (SEQ ID NO 12). Described as above. The class given is biochemical. Conditions: Probenecid 1 mM, microsomes pre-incubated 10 minutes at room temperature; saffron hydroalcoholic extract as substrate; net ATP-dependent transport after 15 minutes; S. cerevisiae ybt1 microsomes. The method, then: as §1, §2

Turning to `CCCN(CCC)S(=O)(=O)c1ccc(C(=O)O)cc1` [Probenecid], the “transportation of saffron metabolites (crocins) in presence of Probenecid inhibitor” value in assay [1] and in assay [2] was “considerable transportation reduction” throughout.
